Results taken from patent US11497212B2, “Substituted thiophenyl uracils, salts thereof and the use thereof as herbicidal agents” (Syngenta Crop Protection AG, priority 2017, dated 2022).

tested on: Abutilon theophrasti; experiment: Herbicidal action post-emergence (greenhouse pot trial); assay type: in vivo; conditions: application rate 20 g/ha, scored visually after about 3 weeks vs untreated controls
Method: (§1) Seeds of mono- and dicotyledonous weed plants and crop plants are laid out in sandy loam soil in plastic or wood-fiber pots, covered with earth and grown under controlled growth conditions in a greenhouse. 2 to 3 weeks after sowing, the trial plants are treated at the one-leaf stage. The compounds of the invention formulated in the form of wettable powders (WP) or emulsion concentrates (EC) were then sprayed onto the green parts of the plant as an aqueous suspension or emulsion with addition of 0.5% additive at a water application rate equivalent to 600 L/ha. After the trial plants had stood for about 3 weeks in the greenhouse, under optimal growth conditions, the effect of the preparations was scored visually by comparison with untreated controls. For example, 100% efficacy=plants have died, 0% efficacy=like control plants. Tables A1 to A15 below show the efficacies of selected compounds of the general formula (I) according to tables I.1 to I.60 on various harmful plants and an application rate corresponding to 80 g/ha or lower that were obtained by the aforementioned trial method.

| Compound | Abutilon theophrasti (Efficacy in %) |
| --- | --- |
| CC(C)=C(Sc1cc(-n2c(=O)cc(C(F)(F)F)n(C)c2=O)c(F)cc1Cl)C(=O)OCC1CCOC1 (stereo not shown) [I.42-72] | 100% |
| CC(Sc1cc(-n2c(=O)cc(C(F)(F)F)n(C)c2=O)c(F)cc1Cl)C(=O)NCC1COC(C)(C)O1 (stereo not shown) [I.1-334] | 100% |
| Cc1c(C(F)(F)F)n(C)c(=O)n(-c2cc(SCC(C)(C)C(=O)OCC3CCCO3)c(Cl)cc2F)c1=O (stereo not shown) [I.54-71] | 100% |

tested on: Amaranthus retroflexus; experiment: as above; assay type: in vivo; conditions: application rate 20 g/ha, scored visually after about 3 weeks vs untreated controls
Method: as §1

| Compound | Amaranthus retroflexus (Efficacy in %) |
| --- | --- |
| CC(C)=C(Sc1cc(-n2c(=O)cc(C(F)(F)F)n(C)c2=O)c(F)cc1Cl)C(=O)OCC1CCOC1 (stereo not shown) [I.42-72] | 100% |
| CC(Sc1cc(-n2c(=O)cc(C(F)(F)F)n(C)c2=O)c(F)cc1Cl)C(=O)NCC1COC(C)(C)O1 (stereo not shown) [I.1-334] | 100% |
| Cc1c(C(F)(F)F)n(C)c(=O)n(-c2cc(SCC(C)(C)C(=O)OCC3CCCO3)c(Cl)cc2F)c1=O (stereo not shown) [I.54-71] | 100% |

tested on: Digitaria sanguinalis; experiment: as above; assay type: in vivo; conditions: application rate 20 g/ha
Method: as §1

| Compound | Digitaria sanguinalis (Efficacy in %) |
| --- | --- |
| CC(C)=C(Sc1cc(-n2c(=O)cc(C(F)(F)F)n(C)c2=O)c(F)cc1Cl)C(=O)OCC1CCOC1 (stereo not shown) [I.42-72] | 100% |
| Cc1c(C(F)(F)F)n(C)c(=O)n(-c2cc(SCC(C)(C)C(=O)OCC3CCCO3)c(Cl)cc2F)c1=O (stereo not shown) [I.54-71] | 80% |

tested on: Echinochloa crus-galli; experiment: as above; assay type: in vivo; conditions: application rate 20 g/ha, scored visually after about 3 weeks vs untreated controls
Method: as §1

| Compound | Echinochloa crus-galli (Efficacy in %) |
| --- | --- |
| CC(C)=C(Sc1cc(-n2c(=O)cc(C(F)(F)F)n(C)c2=O)c(F)cc1Cl)C(=O)OCC1CCOC1 (stereo not shown) [I.42-72] | 90% |
| Cc1c(C(F)(F)F)n(C)c(=O)n(-c2cc(SCC(C)(C)C(=O)OCC3CCCO3)c(Cl)cc2F)c1=O (stereo not shown) [I.54-71] | 80% |

tested on: Matricaria inodora; experiment: as above; assay type: in vivo; conditions: application rate 20 g/ha, scored visually after about 3 weeks vs untreated controls
Method: as §1

| Compound | Matricaria inodora (Efficacy in %) |
| --- | --- |
| CC(C)=C(Sc1cc(-n2c(=O)cc(C(F)(F)F)n(C)c2=O)c(F)cc1Cl)C(=O)OCC1CCOC1 (stereo not shown) [I.42-72] | 100% |
| CC(Sc1cc(-n2c(=O)cc(C(F)(F)F)n(C)c2=O)c(F)cc1Cl)C(=O)NCC1COC(C)(C)O1 (stereo not shown) [I.1-334] | 100% |

tested on: Pharbitis purpurea; experiment: as above; assay type: in vivo; conditions: application rate 20 g/ha
Method: as §1

| Compound | Pharbitis purpurea (Efficacy in %) |
| --- | --- |
| CC(C)=C(Sc1cc(-n2c(=O)cc(C(F)(F)F)n(C)c2=O)c(F)cc1Cl)C(=O)OCC1CCOC1 (stereo not shown) [I.42-72] | 100% |
| Cc1c(C(F)(F)F)n(C)c(=O)n(-c2cc(SCC(C)(C)C(=O)OCC3CCCO3)c(Cl)cc2F)c1=O (stereo not shown) [I.54-71] | 100% |

tested on: Polygonum convolvulus; experiment: as above; assay type: in vivo; conditions: application rate 20 g/ha, scored visually after about 3 weeks vs untreated controls
Method: as §1

| Compound | Polygonum convolvulus (Efficacy in %) |
| --- | --- |
| CC(C)=C(Sc1cc(-n2c(=O)cc(C(F)(F)F)n(C)c2=O)c(F)cc1Cl)C(=O)OCC1CCOC1 (stereo not shown) [I.42-72] | 100% |
| CC(Sc1cc(-n2c(=O)cc(C(F)(F)F)n(C)c2=O)c(F)cc1Cl)C(=O)NCC1COC(C)(C)O1 (stereo not shown) [I.1-334] | 90% |
| Cc1c(C(F)(F)F)n(C)c(=O)n(-c2cc(SCC(C)(C)C(=O)OCC3CCCO3)c(Cl)cc2F)c1=O (stereo not shown) [I.54-71] | 100% |

tested on: Setaria viridis; experiment: as above; assay type: in vivo; conditions: application rate 20 g/ha, scored visually after about 3 weeks vs untreated controls
Method: as §1

| Compound | Setaria viridis (Efficacy in %) |
| --- | --- |
| CC(C)=C(Sc1cc(-n2c(=O)cc(C(F)(F)F)n(C)c2=O)c(F)cc1Cl)C(=O)OCC1CCOC1 (stereo not shown) [I.42-72] | 100% |
| CC(Sc1cc(-n2c(=O)cc(C(F)(F)F)n(C)c2=O)c(F)cc1Cl)C(=O)NCC1COC(C)(C)O1 (stereo not shown) [I.1-334] | 90% |
| Cc1c(C(F)(F)F)n(C)c(=O)n(-c2cc(SCC(C)(C)C(=O)OCC3CCCO3)c(Cl)cc2F)c1=O (stereo not shown) [I.54-71] | 100% |

tested on: Stellaria media; experiment: as above; assay type: in vivo; conditions: application rate 20 g/ha, scored visually after about 3 weeks vs untreated controls
Method: as §1

| Compound | Stellaria media (Efficacy in %) |
| --- | --- |
| CC(C)=C(Sc1cc(-n2c(=O)cc(C(F)(F)F)n(C)c2=O)c(F)cc1Cl)C(=O)OCC1CCOC1 (stereo not shown) [I.42-72] | 90% |
| CC(Sc1cc(-n2c(=O)cc(C(F)(F)F)n(C)c2=O)c(F)cc1Cl)C(=O)NCC1COC(C)(C)O1 (stereo not shown) [I.1-334] | 90% |
| Cc1c(C(F)(F)F)n(C)c(=O)n(-c2cc(SCC(C)(C)C(=O)OCC3CCCO3)c(Cl)cc2F)c1=O (stereo not shown) [I.54-71] | 80% |

tested on: Veronica persica; experiment: as above; assay type: in vivo; conditions: application rate 20 g/ha
Method: as §1

| Compound | Veronica persica (Efficacy in %) |
| --- | --- |
| CC(C)=C(Sc1cc(-n2c(=O)cc(C(F)(F)F)n(C)c2=O)c(F)cc1Cl)C(=O)OCC1CCOC1 (stereo not shown) [I.42-72] | 100% |
| CC(Sc1cc(-n2c(=O)cc(C(F)(F)F)n(C)c2=O)c(F)cc1Cl)C(=O)NCC1COC(C)(C)O1 (stereo not shown) [I.1-334] | 100% |
| Cc1c(C(F)(F)F)n(C)c(=O)n(-c2cc(SCC(C)(C)C(=O)OCC3CCCO3)c(Cl)cc2F)c1=O (stereo not shown) [I.54-71] | 100% |

tested on: Viola tricolor; experiment: as above; assay type: in vivo; conditions: application rate 20 g/ha
Method: as §1

| Compound | Viola tricolor (Efficacy in %) |
| --- | --- |
| CC(C)=C(Sc1cc(-n2c(=O)cc(C(F)(F)F)n(C)c2=O)c(F)cc1Cl)C(=O)OCC1CCOC1 (stereo not shown) [I.42-72] | 100% |
| CC(Sc1cc(-n2c(=O)cc(C(F)(F)F)n(C)c2=O)c(F)cc1Cl)C(=O)NCC1COC(C)(C)O1 (stereo not shown) [I.1-334] | 100% |
| Cc1c(C(F)(F)F)n(C)c(=O)n(-c2cc(SCC(C)(C)C(=O)OCC3CCCO3)c(Cl)cc2F)c1=O (stereo not shown) [I.54-71] | 100% |

tested on: Oryza sativa; experiment: Crop compatibility post-emergence (greenhouse pot trial); assay type: in vivo; conditions: application rate 5 g/ha
Method: as §1, with “plants.” for “plants. Tables A1 to A15 below show the efficacies of selected compounds of the general formula (I) according to tables I.1 to I.60 on various harmful plants and an application rate corresponding to 80 g/ha or lower that were obtained by the aforementioned trial method.”
(§2) Crop plant compatibilities were also scored correspondingly.
(§3) The effects observed are reported here on selected crop plants by comparison with the untreated controls (values in %).

| Oryza sativa (Efficacy in %) | Compound |
| --- | --- |
| 0% | Cc1c(C(F)(F)F)n(C)c(=O)n(-c2cc(SCC(C)(C)C(=O)OCC3CCCO3)c(Cl)cc2F)c1=O (stereo not shown) [I.54-71] |

same assay, conditions: application rate 20 g/ha

| Oryza sativa (Efficacy in %) | Compound |
| --- | --- |
| 10% | CC(Sc1cc(-n2c(=O)cc(C(F)(F)F)n(C)c2=O)c(F)cc1Cl)C(=O)NCC1COC(C)(C)O1 (stereo not shown) [I.1-334] |

tested on: Triticum aestivum; experiment: as above; assay type: in vivo; conditions: application rate 5 g/ha
Method: as §1, with “plants.” for “plants. Tables A1 to A15 below show the efficacies of selected compounds of the general formula (I) according to tables I.1 to I.60 on various harmful plants and an application rate corresponding to 80 g/ha or lower that were obtained by the aforementioned trial method.”
as §2, §3

| Triticum aestivum (Efficacy in %) | Compound |
| --- | --- |
| 20% | Cc1c(C(F)(F)F)n(C)c(=O)n(-c2cc(SCC(C)(C)C(=O)OCC3CCCO3)c(Cl)cc2F)c1=O (stereo not shown) [I.54-71] |

same assay, conditions: application rate 20 g/ha

| Triticum aestivum (Efficacy in %) | Compound |
| --- | --- |
| 20% | CC(C)=C(Sc1cc(-n2c(=O)cc(C(F)(F)F)n(C)c2=O)c(F)cc1Cl)C(=O)OCC1CCOC1 (stereo not shown) [I.42-72] |

tested on: Zea mays; experiment: as above; assay type: in vivo; conditions: application rate 20 g/ha
Method: as §1, with “plants.” for “plants. Tables A1 to A15 below show the efficacies of selected compounds of the general formula (I) according to tables I.1 to I.60 on various harmful plants and an application rate corresponding to 80 g/ha or lower that were obtained by the aforementioned trial method.”
as §2, §3

| Zea mays (Efficacy in %) | Compound |
| --- | --- |
| 20% | CC(Sc1cc(-n2c(=O)cc(C(F)(F)F)n(C)c2=O)c(F)cc1Cl)C(=O)NCC1COC(C)(C)O1 (stereo not shown) [I.1-334] |
